± gives the expanded uncertainty stated by the source.
Experiment: xn = mol fraction of the nth substance listed
Conditions: Liquid

CCOC(F)(C(F)(F)C(F)(F)C(F)(F)F)C(F)(C(F)(F)F)C(F)(F)F (stereo not given) [2-trifluoromethyl-3-ethoxydodecafluorohexane] + CC(C)OC(C)C
viscosity [mPa·s]
Conditions	x1 = 0.25	x1 = 0.375	x1 = 0.5	x1 = 0.625	x1 = 0.75	x1 = 1
293.15 K, 100 kPa, Capillary tube (Ostwald / Ubbelohde) method	0.483 ± 0.01	0.573 ± 0.012	0.685 ± 0.014	0.818 ± 0.017	0.985 ± 0.021	1.369 ± 0.029
293.15 K, 20000 kPa, Falling or rolling sphere viscometry	0.602 ± 0.013	0.751 ± 0.017	0.939 ± 0.021	1.1 ± 0.024	1.315 ± 0.029	1.894 ± 0.043
293.15 K, 40000 kPa, Falling or rolling sphere viscometry	0.732 ± 0.016	0.944 ± 0.021	1.198 ± 0.026	1.412 ± 0.031	1.727 ± 0.038	2.645 ± 0.059
293.15 K, 60000 kPa, Falling or rolling sphere viscometry	0.883 ± 0.019	1.171 ± 0.026	1.49 ± 0.033	1.802 ± 0.04	2.255 ± 0.05	3.622 ± 0.081
293.15 K, 80000 kPa, Falling or rolling sphere viscometry	1.058 ± 0.023	1.435 ± 0.031	1.82 ± 0.04	2.291 ± 0.05	2.936 ± 0.065	4.894 ± 0.11
293.15 K, 100000 kPa, Falling or rolling sphere viscometry	1.26 ± 0.028	1.741 ± 0.038	2.197 ± 0.048	2.902 ± 0.064	3.814 ± 0.085	6.553 ± 0.14
313.15 K, 100 kPa, Capillary tube (Ostwald / Ubbelohde) method	0.386 ± 0.008	0.441 ± 0.009	0.526 ± 0.011	0.617 ± 0.013	0.735 ± 0.015	0.983 ± 0.021
313.15 K, 20000 kPa, Falling or rolling sphere viscometry	0.476 ± 0.01	0.598 ± 0.013	0.701 ± 0.015	0.821 ± 0.018	0.979 ± 0.022	1.356 ± 0.03
313.15 K, 40000 kPa, Falling or rolling sphere viscometry	0.587 ± 0.013	0.748 ± 0.016	0.894 ± 0.02	1.059 ± 0.023	1.292 ± 0.029	1.869 ± 0.042
313.15 K, 60000 kPa, Falling or rolling sphere viscometry	0.712 ± 0.016	0.917 ± 0.02	1.118 ± 0.024	1.339 ± 0.029	1.668 ± 0.037	2.51 ± 0.056
313.15 K, 80000 kPa, Falling or rolling sphere viscometry	0.853 ± 0.019	1.104 ± 0.024	1.376 ± 0.03	1.669 ± 0.037	2.119 ± 0.047	3.31 ± 0.073
313.15 K, 100000 kPa, Falling or rolling sphere viscometry	1.014 ± 0.022	1.312 ± 0.029	1.677 ± 0.037	2.058 ± 0.045	2.663 ± 0.059	4.307 ± 0.096
333.15 K, 100 kPa, Capillary tube (Ostwald / Ubbelohde) method	0.311 ± 0.007	0.356 ± 0.008	0.416 ± 0.009	0.486 ± 0.01	0.574 ± 0.012	0.739 ± 0.016
333.15 K, 20000 kPa, Falling or rolling sphere viscometry	0.393 ± 0.009	0.488 ± 0.011	0.56 ± 0.012	0.644 ± 0.014	0.754 ± 0.017	1.032 ± 0.023
333.15 K, 40000 kPa, Falling or rolling sphere viscometry	0.491 ± 0.011	0.604 ± 0.013	0.707 ± 0.015	0.826 ± 0.018	0.982 ± 0.022	1.41 ± 0.031
333.15 K, 60000 kPa, Falling or rolling sphere viscometry	0.595 ± 0.013	0.735 ± 0.016	0.875 ± 0.019	1.035 ± 0.023	1.252 ± 0.027	1.87 ± 0.041
333.15 K, 80000 kPa, Falling or rolling sphere viscometry	0.706 ± 0.015	0.884 ± 0.019	1.067 ± 0.023	1.277 ± 0.028	1.574 ± 0.034	2.427 ± 0.053
333.15 K, 100000 kPa, Falling or rolling sphere viscometry	0.822 ± 0.018	1.051 ± 0.023	1.283 ± 0.028	1.557 ± 0.034	1.958 ± 0.043	3.105 ± 0.068
353.15 K, 100 kPa, Capillary tube (Ostwald / Ubbelohde) method	–	–	–	–	0.465 ± 0.01	0.576 ± 0.012
353.15 K, 20000 kPa, Falling or rolling sphere viscometry	0.34 ± 0.007	0.399 ± 0.009	0.442 ± 0.01	0.499 ± 0.011	0.591 ± 0.013	0.799 ± 0.018
353.15 K, 40000 kPa, Falling or rolling sphere viscometry	0.428 ± 0.009	0.508 ± 0.011	0.578 ± 0.013	0.66 ± 0.015	0.773 ± 0.017	1.084 ± 0.024
353.15 K, 60000 kPa, Falling or rolling sphere viscometry	0.517 ± 0.011	0.622 ± 0.014	0.724 ± 0.016	0.836 ± 0.018	0.997 ± 0.022	1.418 ± 0.031
353.15 K, 80000 kPa, Falling or rolling sphere viscometry	0.61 ± 0.013	0.739 ± 0.016	0.879 ± 0.019	1.025 ± 0.022	1.245 ± 0.027	1.808 ± 0.04
353.15 K, 100000 kPa, Falling or rolling sphere viscometry	0.706 ± 0.015	0.855 ± 0.019	1.037 ± 0.022	1.223 ± 0.027	1.504 ± 0.033	2.265 ± 0.049

Reference: the NIST ThermoML archive (doi:10.1021/acs.jced.9b00540)
